Values of other authors, collected in patent publication US6635280B2, “Extending the duration of drug release within the stomach during the fed mode” (DepoMed, Inc., priority 1997, dated 2003).

Details: oral doses administered with or following a meal

Cc1c(O)cccc1C(=O)N[C@@H](CSc1ccccc1)[C@H](O)CN1C[C@H]2CCCC[C@H]2C[C@H]1C(=O)NC(C)(C)C [nelfinavir]
area under the plasma concentration-time curve, increase with or following a meal: two-fold to three-fold
peak plasma concentration, increase with or following a meal: two-fold to three-fold
